US20240415819A1, “MACROCYCLIC COMPOUNDS AS PROTEASOME SUBUNIT BETA TYPE-5 INHIBITORS” (Lead Discovery Center GmbH, priority 2021, published 2024)
pIC50: −log10 of the molar value.

Tested on: hPMBC
Test: Chymotrypsin-like ProteasomeGlo assay in hPBMC
Assay type: cell-based
Conditions: Homo sapiens; read-out: Pglo hPBMC
Summary of the method: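 IC50 derived from luminescent chymotrypsin-like proteasome activity (Suc-LLVY-Glo substrate plus luciferin detection reagent). Measured after 105 min compound exposure at 37 °C, 5% CO2. Cells were human B cells purified from buffy-coat PBMC.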

Row | pIC50 | Structure (SMILES)
1 | 5.30 to 6.00 | Cc1ccc2cc1CNC(=O)[C@H](CCc1ccccc1)NC(=O)[C@H](NC(=O)OCc1ccccc1)CC(=O)N1CCC[C@H](CCO2)C1 [Compound 291, benzyl ((13R,9S,12R)-5^4-methyl-8,11,14-trioxo-9-phenethyl-4-oxa-7,10-diaza-1(3,1)-piperidina-5(1,3)-benzenacyclotetradecaphane-12-yl)carbamate]
2 | 6.30 to 7.00 | CC(=O)N[C@H]1CC(=O)N2CCCC(CCOc3ccc(C)c(c3)CNC(=O)C(c3cnn(Cc4ccccc4)c3)NC1=O)C2 (stereo partly drawn) [Compound 565, N-((12S)-9-(1-benzyl-1H-pyrazol-4-yl)-5^4-methyl-8,11,14-trioxo-4-oxa-7,10-diaza-1(3,1)-piperidina-5(1,3)-benzenacyclotetradecaphane-12-yl)acetamide]
3 | > 7.00 | Cc1ccc2cc1CNC(=O)[C@H](CCc1ccccc1)NC(=O)[C@@H](NC(=O)OCc1ccccc1)CC(=O)N1CCC[C@H](CCO2)C1 [Compound 292, benzyl ((13R,9S,12S)-5^4-methyl-8,11,14-trioxo-9-phenethyl-4-oxa-7,10-diaza-1(3,1)-piperidina-5(1,3)-benzenacyclotetradecaphane-12-yl)carbamate]
4 | > 7.00 | CCC(C(=O)N[C@H]1CC(=O)N2CCCC(CCOc3ccc(C)c(c3)CNC(=O)[C@H](CCc3ccccc3)NC1=O)C2)c1ccc(OC)c(OC)c1 (stereo partly drawn) [Compound 64, 2-(3,4-dimethoxyphenyl)-N-((9S,12S)-5^4-methyl-8,11,14-trioxo-9-phenethyl-4-oxa-7,10-diaza-1(3,1)-piperidina-5(1,3)-benzenacyclotetradecaphane-12-yl)butanamide]

Row | Structure (SMILES) | pIC50
5 | Cc1ccc2cc1CNC(=O)[C@H](CCc1ccccc1)NC(=O)[C@@H](NC(=O)OCC1(C)COC1)CC(=O)N1CCCC(CCO2)C1 (stereo partly drawn) [Compound 293, (3-methyloxetan-3-yl)methyl ((9S,12S)-5^4-methyl-8,11,14-trioxo-9-phenethyl-4-oxa-7,10-diaza-1(3,1)-piperidina-5(1,3)-benzenacyclotetradecaphane-12-yl)carbamate] | > 7.00
